Article PMC11904993, “Humanized Candida and NanoBiT Assays Expedite Discovery of Bdf1 Bromodomain Inhibitors With Antifungal Potential” (Advanced Science, 2025)
Values joined by “and” are separate entries in the source; they are usually repeats but may differ in a detail not shown here. Equal values may be shown once. Read-outs that look alike come from different tables or passages of the source.

Legend:
[1] = tested on: C. glabrata strains expressing WT and mutant Bdf1; assay: Growth inhibition in liquid media, C. glabrata lab strains; details: for OD at 600 nm: Figure S4B; for EC50: Nakaseomyces glabratus; for pEC50 growth inhibition: Fig 2C
Method: (§1) Growth on Liquid Media with C. glabrata Lab Strains: Cells were grown at 30 °C in SC+M+C‐U medium (SC medium with 5 mM methionine, 0.25 mM cysteine, without uracil) to an OD600 of 0.5–0.8. […] Plates were incubated at 30 °C and OD600 was measured using a Multiskan FC Microplate Photometer (Thermo Fisher).

CgBdf1 BD1 [2] = biological target: CgBdf1 BD1 (Candida glabrata, UniProt Q6FWV7); assay: HTRF assay, inhibition of H4ac4 peptide binding; set-up: species or system C. glabrata; details: for IC50 / pIC50 CgBD1: single experiments Exp1-3; for IC50: read-out: pIC50 CgBD1 (converted)
CgBdf1 BD1 (Candida glabrata, UniProt Q6FWV7), sequence (Q6FWV7 entry or part of it): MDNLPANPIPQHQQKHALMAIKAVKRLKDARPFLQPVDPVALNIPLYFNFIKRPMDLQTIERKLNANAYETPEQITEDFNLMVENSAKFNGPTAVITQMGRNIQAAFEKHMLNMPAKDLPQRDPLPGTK

CgBdf1 BD2 [3] = biological target: CgBdf1 BD2 (Candida glabrata, UniProt Q6FWV7); assay: biochemical; type: binding, C. glabrata; details: for IC50: read-out: pIC50 CgBD2 (converted)
CgBdf1 BD2 (Candida glabrata, UniProt Q6FWV7), sequence (Q6FWV7 entry or part of it): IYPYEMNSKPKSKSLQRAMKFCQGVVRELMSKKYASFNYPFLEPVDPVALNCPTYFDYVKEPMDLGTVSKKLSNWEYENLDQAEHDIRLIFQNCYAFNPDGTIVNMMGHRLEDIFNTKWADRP

CgBdf1 BD2 [4] = assay: Histone peptide array assay; details: peptide array signal
Method: (§2) The array was prepared as described in the manufacturer's instructions. […] The array was then washed three times with binding buffer. Anti‐GST antibody (GE Healthcare) was used for the detection of GST‐tagged bromodomains.

CgBdf1 BD1 [5] = assay: Histone peptide array assay; details: peptide array signal
Method: as §2

[6] = tested on: C. glabrata expressing humanized Bdf1 (Brd4 BDs); assay: Growth inhibition in liquid media, humanized C. glabrata strains; details: Fig 3E, 50 µM, Exp 1-3
Method: as §1

[7] = read-out: pEC50 (WT BDF1), Fig 2D (converted), WT C. glabrata, single experiments Exp1-3
[8] = read-out: pEC50 growth inhibition, Fig 2C (converted), strain BD1 Y-F, single experiments Exp1-3
[9] = Fig 2C original data, analogs of 24
[10] = strain BD2 Y-F, single experiments Exp1-3
[11] = read-out: pEC50 growth inhibition, Fig 2C (converted), strain BD2 Y-F, single experiments Exp1-3
[12] = Fig 2C original data, analogs of 24, single experiments Exp1-3

Compound: CCOC(=O)Nc1cc(-c2ccc(C)c(NS(C)(=O)=O)c2)nn2c(C)nnc12 [Bromosporine, reference compound]
- OD at 600 nm ([1]; WT BDF1 strain, Exp 1-3): 0.446 and 0.443 and 0.490
- OD at 600 nm ([1]; bdf1-bd1Δ strain, Exp 1-3): 0.422 and 0.447 and 0.470
- OD at 600 nm ([1]; bdf1-bd2Δ strain, Exp 1-3): 0.242 and 0.229 and 0.260
- remaining activity at 0.07813 µM (CgBdf1 BD1 [2]; 4 h, CgBD1, Conc 78.13 nM, replicate experiments, read-out: HTRF signal relative to no-compound control (Figure S4A raw data)): 98%
- remaining activity at 0.3125 µM (CgBdf1 BD1 [2]; 4 h, CgBD1, Conc 312.5 nM, replicate experiments, read-out: HTRF signal relative to no-compound control (Figure S4A raw data)): 97.9%
- remaining activity at […] (CgBdf1 BD1 [2]; 4 h, CgBD1, Conc 2500 nM, replicate experiments, read-out: HTRF signal relative to no-compound control (Figure S4A raw data)): 94.3%
- remaining activity at 5 µM (CgBdf1 BD1 [2]; 4 h, CgBD1, Conc 5000 nM, replicate experiments, read-out: HTRF signal relative to no-compound control (Figure S4A raw data)): 80.9%
- remaining activity at 10 µM (CgBdf1 BD1 [2]; 4 h, CgBD1, Conc 10000 nM, replicate experiments, read-out: HTRF signal relative to no-compound control (Figure S4A raw data)): 75.9%
- remaining activity at 20 µM (CgBdf1 BD1 [2]; 4 h, CgBD1, Conc 20000 nM, replicate experiments, read-out: HTRF signal relative to no-compound control (Figure S4A raw data)): 49.4%
- IC50 (CgBdf1 BD1 [2]; Fig 1D/2A original data): 23.4 µM and 12.3 µM and 20 µM
- remaining activity at 0.07813 µM (CgBdf1 BD2 [3]; 24 h, CgBD2, Conc 78.13 nM, replicate experiments, read-out: HTRF signal relative to no-compound control (Figure S4A raw data)): 106%
- remaining activity at 0.15625 µM (CgBdf1 BD2 [3]; 24 h, CgBD2, Conc 156.25 nM, replicate experiments, read-out: HTRF signal relative to no-compound control (Figure S4A raw data)): 113%
- remaining activity at […] (CgBdf1 BD2 [3]; 24 h, CgBD2, Conc 2500 nM, replicate experiments, read-out: HTRF signal relative to no-compound control (Figure S4A raw data)): 79.8%
- remaining activity at 5 µM (CgBdf1 BD2 [3]; 24 h, CgBD2, Conc 5000 nM, replicate experiments, read-out: HTRF signal relative to no-compound control (Figure S4A raw data)): 60.1%
- remaining activity at 10 µM (CgBdf1 BD2 [3]; 24 h, CgBD2, Conc 10000 nM, replicate experiments, read-out: HTRF signal relative to no-compound control (Figure S4A raw data)): 30.8%
- remaining activity at 20 µM (CgBdf1 BD2 [3]; 24 h, CgBD2, Conc 20000 nM, replicate experiments, read-out: HTRF signal relative to no-compound control (Figure S4A raw data)): 23.4%
- IC50 (CgBdf1 BD2 [3]; Fig 1D/2A original data, single experiments Exp1-3): 4.9 µM and 4.17 µM

Compound: Cc1ccc(-c2nnc(C)c(NCc3ccco3)n2)cc1 [Compound 24a]
- EC50 [1, 7]: 206 µM
- EC50 [1, 8]: > 251 µM
- pIC50 CgBD1 (CgBdf1 BD1 [2]; [9]): 5.099 and 5.219 and 5.157
- fold drop in CgBD1 inhibition (CgBdf1 BD1 [2]; relative to 24, thiophenyl replaced by furyl or methylfuryl): 3 fold

Compound: Cc1cccc(-c2nnc(C)c(NCc3ccco3)n2)c1 [Compound 24b]
- pEC50 growth inhibition [1, 10]: 3.930 and 3.985
- EC50 [1, 7]: > 251 µM
- EC50 [1, 8]: > 251 µM
- EC50 [1, 11]: 74.8 µM
- IC50 (CgBdf1 BD1 [2]; [9]): 12.6 µM and 14.6 µM and 22.2 µM
- IC50 (CgBdf1 BD2 [3]; [12]): 29.5 µM and 74.6 µM and > 100 µM

Compound: Cc1cccc(-c2nnc(C)c(NCc3ccc(C)o3)n2)c1 [Compound 24d]
- pEC50 growth inhibition ([1]; strain BD1 Y-F, single experiments Exp1-3): 3.797 and 3.888
- pEC50 growth inhibition [1, 10]: 4.459 and 4.324
- pEC50 (WT BDF1) ([1]; Fig 2D, WT C. glabrata, single experiments Exp1-3): 3.713 and 3.843
- EC50 [1, 7]: 101 µM
- EC50 [1, 8]: 134 µM
- EC50 [1, 11]: 44.7 µM
- IC50 (CgBdf1 BD1 [2]; [9]): 14.2 µM and 12.2 µM and 11.5 µM
- IC50 (CgBdf1 BD2 [3]; [12]): 16.4 µM and 18.7 µM and 21.5 µM

Compound: COc1cccc(CNc2nc(-c3ccc(C)cc3)nnc2C)c1 [Compound 24f]
- pEC50 growth inhibition [1, 10]: 4.188
- EC50 [1, 7]: > 251 µM
- EC50 [1, 8]: > 251 µM
- EC50 [1, 11]: 68.2 µM
- IC50 (CgBdf1 BD1 [2]; [9]): 3.66 µM and 2.81 µM and 2.3 µM
- IC50 (CgBdf1 BD2 [3]; [12]): > 100 µM

Compound: COc1ccc(-c2nnc(C)c(NCc3ccccc3)n2)cc1 [Compound 24g]
- pEC50 growth inhibition [1, 10]: 4.261 and 4.310
- EC50 [1, 7]: > 251 µM
- EC50 [1, 8]: > 251 µM
- EC50 [1, 11]: 43.2 µM
- pIC50 CgBD1 (CgBdf1 BD1 [2]; [9]): 6.145 and 5.997
- pIC50 CgBD2 (CgBdf1 BD2 [3]; [12]): 4.269 and <4

Compound: COc1ccc(CNc2nc(-c3ccc(C)cc3)nnc2C)cc1OC [Compound 24i]
- EC50 [1, 7]: > 251 µM
- EC50 [1, 8]: > 251 µM
- EC50 [1, 11]: > 251 µM
- IC50 (CgBdf1 BD1 [2]; [9]): 2.61 µM and 2.54 µM and 2.62 µM
- IC50 (CgBdf1 BD2 [3]; [12]): 44.1 µM and 45 µM and 41.5 µM

Compound: COc1ccc(CNc2nc(-c3cccc(C)c3)nnc2C)cc1OC [Compound 24j]
- EC50 [1, 7]: > 251 µM
- EC50 [1, 8]: > 251 µM
- EC50 [1, 11]: > 251 µM
- IC50 (CgBdf1 BD1 [2]; [9]): 4.11 µM and 5.81 µM and 4.81 µM
- IC50 (CgBdf1 BD2 [3]; [12]): 57 µM and 58.2 µM and 82.4 µM

Compound: COC(=O)c1ccc(CNc2nc(-c3ccc(C)cc3)nnc2C)cc1 [Compound 24k, Methyl 4‐(((6‐methyl‐3‐(p‐tolyl)‐1,2,4‐triazin‐5‐yl)amino)methyl)benzoate]
- EC50 [1, 7]: > 251 µM
- EC50 [1, 8]: > 251 µM
- EC50 [1, 11]: > 251 µM
- IC50 (CgBdf1 BD1 [2]; [9]): > 100 µM
- IC50 (CgBdf1 BD2 [3]; [12]): > 100 µM

Compound: COC(=O)c1cccc(CNc2nc(-c3ccc(C)cc3)nnc2C)c1 [Compound 24l, Methyl 3‐(((6‐methyl‐3‐(p‐tolyl)‐1,2,4‐triazin‐5‐yl)amino)methyl)benzoate]
- EC50 [1, 7]: > 251 µM
- EC50 [1, 8]: > 251 µM
- EC50 [1, 11]: > 251 µM
- IC50 (CgBdf1 BD1 [2]; [9]): 79.4 µM and 39.6 µM and 89.9 µM
- IC50 (CgBdf1 BD2 [3]; [12]): > 100 µM

Compound: Cc1ccc(-c2nnc(C)c(NCc3ccccc3)n2)cc1 [Compound 24m, N‐benzyl‐6‐methyl‐3‐(p‐tolyl)‐1,2,4‐triazin‐5‐amine]
- EC50 [1, 7]: > 251 µM
- EC50 [1, 8]: > 251 µM
- EC50 [1, 11]: > 251 µM
- IC50 (CgBdf1 BD1 [2]; [9]): > 20 µM
- IC50 (CgBdf1 BD2 [3]; [12]): > 20 µM

Compound: CCOC(=N)c1ccc(C)cc1 [Compound 65]
- Raw data, WT (CgBdf1 BD2 [4]; CgBdf1 BD2 WT, first replicate column): 0.004991
- Normalized (0 to 100%), WT (CgBdf1 BD2 [4]; CgBdf1 BD2 WT, mean of the two raw values): 0.421%
- Raw data, WT (CgBdf1 BD2 [4]; CgBdf1 BD2 WT, second replicate column): 0.003431
- Raw data, YF mutant (CgBdf1 BD2 [4]; CgBdf1 BD2 YF mutant, first replicate column): 0.007362
- Normalized (0 to 100%), YF mutant (CgBdf1 BD2 [4]; CgBdf1 BD2 YF mutant, mean of the two raw values): 0.383%
- Raw data, YF mutant (CgBdf1 BD2 [4]; CgBdf1 BD2 YF mutant, second replicate column): 0.0003067
- Raw data, WT (CgBdf1 BD1 [5]; CgBdf1 BD1 WT, first replicate column): 0.0009452
- Normalized (0 to 100%), WT (CgBdf1 BD1 [5]; CgBdf1 BD1 WT, mean of the two raw values): 1.47%
- Raw data, WT (CgBdf1 BD1 [5]; CgBdf1 BD1 WT, second replicate column): 0.02836
- Raw data, YF mutant (CgBdf1 BD1 [5]; CgBdf1 BD1 YF mutant, first replicate column): 0.001851
- Normalized (0 to 100%), YF mutant (CgBdf1 BD1 [5]; CgBdf1 BD1 YF mutant, mean of the two raw values): 0.247%
- Raw data, YF mutant (CgBdf1 BD1 [5]; CgBdf1 BD1 YF mutant, second replicate column): 0.003085

Compound: CCNC(=O)C[C@@H]1N=C(c2ccc(Cl)cc2)c2cc(OC)ccc2-n2c(C)nnc21 [I-BET762]
- %Growth ([1]; Fig 3E, 50 µM, WT BDF1-flag, Exp 1-3): 107% and 101%
- %Growth ([6]; BDF1-hBD1-flag): 102% and 95% and 92%
- %Growth ([6]; BDF1-hBD2-flag): 105% and 93% and 100%
- %Growth ([6]; humanized BDF1-flag): 83%

Compound: CCNC(=O)C[C@@H]1N=C(c2ccc(Cl)cc2)c2cc(OC)ccc2-n2c(C)nnc21 [I-BET]
- OD at 600 nm ([1]; WT BDF1 strain, Exp 1-3): 0.369 and 0.413 and 0.420
- OD at 600 nm ([1]; bdf1-bd1Δ strain, Exp 1-3): 0.298 and 0.365 and 0.364
- OD at 600 nm ([1]; bdf1-bd2Δ strain, Exp 1-3): 0.164 and 0.171 and 0.191

Compound: COc1ccccc1S(=O)(=O)Nc1ccc2c(c1)CN(C)C(=O)N2 [PFI-1, reference compound]
- pIC50 CgBD1 (CgBdf1 BD1 [2]; Fig 1D/2A original data): 4.63 and 4.61
- pIC50 CgBD2 (CgBdf1 BD2 [3]): * 4

Compound: COc1ccccc1S(=O)(=O)Nc1ccc2c(c1)CN(C)C(=O)N2 [PFI]
- OD at 600 nm ([1]; WT BDF1 strain, Exp 1-3): 0.381 and 0.415 and 0.390
- OD at 600 nm ([1]; bdf1-bd1Δ strain, Exp 1-3): 0.323 and 0.367 and 0.349
- OD at 600 nm ([1]; bdf1-bd2Δ strain, Exp 1-3): 0.181 and 0.163 and 0.165

Compound: I-BET151 [reference compound]
- pIC50 CgBD1 (CgBdf1 BD1 [2]; Fig 1D/2A original data, listed as IBET-151): 5.54 and 5.64 and 5.77
- pIC50 CgBD1 (CgBdf1 BD1 [2]; Fig 1D/2A original data, listed as i-BET151): 5.772 and 5.641
- pIC50 CgBD2 (CgBdf1 BD2 [3]; Fig 1D/2A original data, single experiments Exp1-3, listed as IBET-151): 6.30 and 6.21 and 6.31
- pIC50 CgBD2 (CgBdf1 BD2 [3]; Fig 1D/2A original data, single experiments Exp1-3, listed as i-BET151): 6.297 and 6.205
